Assay results taken from patent US7678831B2, “Butanoic acid derivatives, processes for the preparation thereof, pharmaceutical compositions comprising them, and therapeutic applications thereof” (Merck Patent GmbH, priority 2004, dated 2010).
Marks after values point to notes of the source that are not given here.

How the values were obtained:
db/db mice = test: Antidiabetic and hypolipidaemiant activity, oral, in db/db mice; assay type: in vivo; settings: 20 mg/kg/day orally for 15 days
Procedure: The antidiabetic and hypolipidaemiant activity of the compounds according to the invention was determined orally on db/db mice.
15-week-old db/db mice are treated orally for 15 days with the compound of Example 18 (20 mg/kg/day). Each group studied comprises seven animals. After treatment for 15 days, retro-orbital samples are taken under mild anaesthesia and after fasting for four hours.
The following parameters were measured:
Assay of the glycaemia (glucose oxidase) and of the lipid parameters on the sera at D15 (COBAS): triglycerides, total cholesterol (CHOL), HDL cholesterol (HDL-C) and free fatty acids (FFA) (BioMérieux and Waco Chemicals assay kit).
The measurements reported represent mean values±standard error.

[1] = target: T1, chimeric protein PPARγ-Gal4 (Homo sapiens, UniProt P37231); test: PPAR activation, Gal4 chimera luciferase reporter gene in co-transfected CV-1 cells; assay type: cell-based; settings: 50 μM, 18 hours contact, CV-1 cells (monkey kidney cells)
T1 construct: Gal4 (fusion partner); expressed in transfected cells; host or cells: CV-1 cells (monkey kidney cells)
T1 sequence (P37231 238-503 limits assumed): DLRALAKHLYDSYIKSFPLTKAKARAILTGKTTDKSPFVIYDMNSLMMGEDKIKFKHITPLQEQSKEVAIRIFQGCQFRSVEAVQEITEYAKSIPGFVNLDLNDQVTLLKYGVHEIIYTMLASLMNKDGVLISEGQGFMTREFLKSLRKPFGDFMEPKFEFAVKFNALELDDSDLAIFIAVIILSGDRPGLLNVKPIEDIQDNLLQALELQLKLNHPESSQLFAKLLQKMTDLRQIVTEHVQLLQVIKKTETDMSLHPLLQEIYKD
Procedure: (§1) The measurement of the PPAR activation was performed according to a technique described by Lehmann et al. (J. Biol. Chem., 270, (1995), 12953-12956).
(§2) CV-1 cells (monkey kidney cells) are co-transfected with an expression vector for the chimeric proteins PPARα-Gal4 or PPARγ-Gal4 and with a “reporter” plasmid that allows the expression of the luciferase gene placed under the control of a promoter comprising Gal4 response elements.
(§3) The cells are plated into 96-well microplates and co-transfected using a commercial reagent with the reporter plasmid (pG5-tk-pGL3) and the expression vector for the chimeric protein (PPARα-Gal4 or PPARγ-Gal4). After incubating for 4 hours, whole culture medium (comprising 10% foetal calf serum) is added to the wells. After 24 hours, the medium is removed and replaced with whole medium comprising the test products (50 μM final). The products are left in contact with the cells for 18 hours. The cells are then lysed and the luciferase activity is measured using a luminometer. A PPAR activation factor can then be calculated by means of activation of the expression of the reporter gene induced by the product (relative to the control cells that have not received any product).

[2] = target: T2, chimeric protein PPARα-Gal4 (Homo sapiens, UniProt Q07869); test: as above; assay type: cell-based; settings: 50 μM, 18 hours contact, CV-1 cells (monkey kidney cells)
T2 construct: Gal4 (fusion partner); expressed in transfected cells; host or cells: CV-1 cells (monkey kidney cells)
T2 sequence (Q07869 239-466 limits assumed): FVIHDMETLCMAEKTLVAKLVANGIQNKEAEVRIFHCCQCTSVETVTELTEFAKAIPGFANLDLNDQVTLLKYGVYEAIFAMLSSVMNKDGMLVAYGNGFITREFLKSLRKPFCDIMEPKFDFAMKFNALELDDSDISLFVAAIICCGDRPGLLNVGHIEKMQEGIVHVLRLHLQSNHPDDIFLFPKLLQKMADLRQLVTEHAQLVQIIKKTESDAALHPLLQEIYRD
Procedure: as §1, §2, §3

Gal4 alone = test: Control reporter test without the PPAR ligand binding domain (vector expressing Gal4 alone); assay type: cell-based; settings: CV-1 cells
Procedure: CV-1 cells (monkey kidney cells) are co-transfected with an expression vector for the chimeric proteins PPARα-Gal4 or PPARγ-Gal4 and with a “reporter” plasmid that allows the expression of the luciferase gene placed under the control of a promoter comprising Gal4 response elements. The cells are plated into 96-well microplates and co-transfected using a commercial reagent with the reporter plasmid (pG5-tk-pGL3) and the expression vector for the chimeric protein (PPARα-Gal4 or PPARγ-Gal4). After incubating for 4 hours, whole culture medium (comprising 10% foetal calf serum) is added to the wells. After 24 hours, the medium is removed and replaced with whole medium comprising the test products (50 μM final). The products are left in contact with the cells for 18 hours. The cells are then lysed and the luciferase activity is measured using a luminometer. A PPAR activation factor can then be calculated by means of activation of the expression of the reporter gene induced by the product (relative to the control cells that have not received any product). […] In the absence of the binding domain for the PPAR α or γ ligand (vector expressing Gal4 alone), the luciferase activity measured in the presence of this product is zero.

[3] = serum at D15, fasting four hours, mean ± standard error

Row | Structure (SMILES) | melting point [°C] | other results
1 | O=C(c1ccc(Cl)cc1)c1ccc(O[C@@H](CCc2ccccc2)C(=O)O)cc1 [Example 6] | 148 | 
2 | O=C(O)[C@H](CCc1ccccc1)Oc1ccc(-c2cccnc2)cc1 [Example 7] | 140 | 
3 | O=C(O)[C@H](CCc1ccccc1)Oc1ccc(-c2ccsc2)cc1 [Example 8] | 176 to 177 | 
4 | O=C(O)[C@H](CCc1ccccc1)Oc1ccc(-c2cccs2)cc1 [Example 9] | 151 to 153 | 
5 | O=C(O)[C@H](CCc1ccccc1)Oc1ccc(-c2ccc(Cl)s2)cc1 [Example 18, (2S)-2-[4-(5-chlorothien-2-yl)phenoxy]-4-phenylbutanoic acid] |  | CHOL, % var. (percentage of variation versus control) (db/db mice; D15): +25 ** %; FFA, % var. (percentage of variation versus control) (db/db mice; D15): −40 ** %; Glycaemia, % var. (percentage of variation versus control) (db/db mice; D15): −53 ** %; HDL-C, % var. (percentage of variation versus control) (db/db mice; D15): +10 * %; Triglycerides, % var. (percentage of variation versus control) (db/db mice; D15): −41 ** %; CHOL (total cholesterol) (db/db mice; [3]): 4.57 ± 0.51 mM; FFA (free fatty acids) (db/db mice; [3]): 0.42 ± 0.06 mM; Glycaemia (db/db mice; [3]): 12.65 ± 7.0 Mm; HDL-C (db/db mice; [3]): 3.53 ± 0.24 mM; Triglycerides (db/db mice; [3]): 0.77 ± 0.16 mM; PPAR activation factor (reporter gene expression relative to control cells) [1]: 41; PPAR activation factor (reporter gene expression relative to control cells) [2]: 16; luciferase activity in the absence of the binding domain for the PPAR α or γ ligand (Gal4 alone): zero
6 | Cc1nc(-c2ccc(O[C@@H](CCc3ccccc3)C(=O)O)cc2)cs1 [Example 26] | 150 to 152 | 
7 | O=C(O)C(CCc1cccc(Cl)c1)Oc1ccc(-c2cc3ccccc3s2)cc1 (stereo not shown) [Example 141] | 109 to 110 | 
8 | COc1ccc(CCC(Oc2ccc(-c3cc4ccccc4s3)cc2)C(=O)O)cc1 (stereo not shown) [Example 142] | 198 to 199 | 
9 | O=C(O)[C@H](CCc1ccccc1)Oc1cccc(OCc2ccc3ccccc3n2)c1 [Example 143] | 124 | 
10 | O=C(O)[C@H](CCc1ccccc1)Oc1ccc(-c2cc3ccccc3o2)cc1 [Example 144] | 198 | 
11 | O=C(O)C(CCc1ccc(F)cc1)Oc1ccc(-c2cc3ccccc3s2)cc1 (stereo not shown) [Example 146] | 188 to 190 | 
12 | O=C(O)C(CCc1ccccc1)Oc1ccc2oc3ccccc3c2c1 (stereo not shown) [Example 152] | 136 | 
13 | Cc1cc(OC(CCc2ccccc2)C(=O)O)cc(=O)o1 (stereo not shown) [Example 207] | 165 | 
14 | O=C(O)C(CCc1ccco1)Oc1ccc(Br)cc1 (stereo not shown) [Example 227] | 102 to 104 | 
15 | O=C(O)C(CCc1ccco1)Oc1ccc(C(F)(F)F)cc1 (stereo not shown) [Example 228] | 99 to 99.5 | 
16 | O=C(O)C(CCc1cccs1)Oc1ccc(C(F)(F)F)cc1 (stereo not shown) [Example 229] | 116 to 118 | 
